# Laboratory results: patent EP0326922A2 (priority 1988, dated 1989)
# Legend:
# [1] = solvents in which the substance dissolves, in words
# Candida albicans = test: MIC (MHK) determination; type: cell-based; conditions: read-out: MHK-Werte
# Saccharomyces cerevisiae = test: MIC (MHK) determination; type: cell-based; conditions: read-out: MHK-Werte
# Hefe 5060 = test: MIC (MHK) determination; type: cell-based; conditions: read-out: MHK-Werte
# Aspergillus niger = test: MIC (MHK) determination; type: cell-based; conditions: read-out: MHK-Werte
# [2] = test system: Penicillium digitatum 135; test: MIC (MHK) determination; type: cell-based; conditions: read-out: MHK-Werte
# Fusarium culmorum 100 = test: MIC (MHK) determination; type: cell-based; conditions: read-out: MHK-Werte
# [3] = test system: Trichophyton mentagrophytes; test: MIC (MHK) determination; type: cell-based; conditions: read-out: MHK-Werte
# Cladosporuim resinae = test: MIC (MHK) determination; type: cell-based; conditions: read-out: MHK-Werte
# Botrytis cinerea 16 = test: MIC (MHK) determination; type: cell-based; conditions: read-out: MHK-Werte
# Botrytis cinerea 47 = test: MIC (MHK) determination; type: cell-based; conditions: read-out: MHK-Werte
# Botrytis cinerea 57 = test: MIC (MHK) determination; type: cell-based; conditions: read-out: MHK-Werte
# Alternaria solani 5 = test: MIC (MHK) determination; type: cell-based; conditions: read-out: MHK-Werte
# Cercospora beticola 71 = test: MIC (MHK) determination; type: cell-based; conditions: read-out: MHK-Werte
# Pyricularia oryzae 154 = test: microbe, parasite or virus in culture; type: cell-based; conditions: Pyricularia oryzae, 154, read-out: MHK-Werte
# Staph. aureus 209 P = test: MIC (MHK) determination; type: cell-based; conditions: Staphylococcus aureus, read-out: MHK-Werte
# E. coli 9632 = test: MIC (MHK) determination; type: cell-based; conditions: Escherichia coli, read-out: MHK-Werte
smiles,measurement,setting,value
COC(=O)/C=C(/C=C/C(C)C/C=C/CC/C=C/C=C\CC(OC)/C(C)=C\C=C(/C)C(=O)OC)CC(=O)OC (stereo not drawn) [Isobongkrekinsäure-trimethylester],Löslichkeit,[1],"CHCl3, CH2Cl2,MeOH, Aceton, Äthylacetat und Petroläther"
"COC(C/C=C\C=C\CC/C=C/CC(C)/C=C/C(=C/C(=O)O)CC(=O)O)/C(C)=C\C=C(/C)C(=O)O (stereo not drawn) [Isobongkrekinsäure, 3-Carboxymethyl-17-methoxy-6,18,21-trimethyldocosa-2E,4E,8E,12E,14Z,18Z,20E-hepta-en-1,22-disäure]",MIC,Candida albicans,> 125 µg/mL
same,MIC,Saccharomyces cerevisiae,> 125 µg/mL
same,MIC,Hefe 5060,> 125 µg/mL
same,MIC,Aspergillus niger,62.5 µg/mL
same,MIC,[2],62.5 µg/mL
same,MIC,Fusarium culmorum 100,7.8 µg/mL
same,MIC,[3],125 µg/mL
same,MIC,Cladosporuim resinae,250 µg/mL
same,MIC,Botrytis cinerea 16,62.5 µg/mL
same,MIC,Botrytis cinerea 47,15.6 µg/mL
same,MIC,Botrytis cinerea 57,31.2 µg/mL
same,MIC,Alternaria solani 5,62.5 µg/mL
same,MIC,Cercospora beticola 71,15.6 µg/mL
same,MIC,Pyricularia oryzae 154,31.2 µg/mL
same,MIC,Staph. aureus 209 P,125 µg/mL
same,MIC,E. coli 9632,> 125 µg/mL
same,Löslichkeit,[1],"Wäßriges Alkali, schwerlöslich in MeOH und Wasser"
